The values below come from US6506772B1, “Substituted [1,2,4]triazolo[1,5a]pyridine derivatives with activity as adenosine receptor ligands” (Hoffmann-La Roche Inc., priority 2000, dated 2003).

Assay [1] addresses T1, human adenosine A2A receptor (Homo sapiens, UniProt P29274).
T1 construct: expressed in transfected cells; host or cells: CHO cells, Semliki Forest virus expression system; membrane preparation
Nature of the assay: Human adenosine A2A receptor [3H]-SCH-58261 binding assay. Conditions: for Ki: affinity to human adenosine A2A receptor, read-out: Ki HA2A; for selectivity (A1/A2a): calculated ratio of the affinity to the HA1 receptor to the HA2a receptor.

The target in assay [2] is T2, HA1 adenosine receptor (Homo sapiens, UniProt P30542).
T2 sequence (P30542 1-326): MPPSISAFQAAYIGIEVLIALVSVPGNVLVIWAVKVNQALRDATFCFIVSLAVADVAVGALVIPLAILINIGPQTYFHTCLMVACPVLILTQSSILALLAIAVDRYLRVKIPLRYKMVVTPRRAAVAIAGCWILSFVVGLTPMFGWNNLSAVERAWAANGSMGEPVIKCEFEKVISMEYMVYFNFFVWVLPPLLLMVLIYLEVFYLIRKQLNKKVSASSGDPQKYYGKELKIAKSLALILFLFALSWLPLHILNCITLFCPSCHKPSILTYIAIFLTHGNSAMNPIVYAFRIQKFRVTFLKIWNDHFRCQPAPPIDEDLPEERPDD
Description: Human adenosine A1 receptor affinity (Ki hA1). Format: binding. Conditions: affinity to human adenosine A1 receptor.

T1 sequence (P29274 whole entry): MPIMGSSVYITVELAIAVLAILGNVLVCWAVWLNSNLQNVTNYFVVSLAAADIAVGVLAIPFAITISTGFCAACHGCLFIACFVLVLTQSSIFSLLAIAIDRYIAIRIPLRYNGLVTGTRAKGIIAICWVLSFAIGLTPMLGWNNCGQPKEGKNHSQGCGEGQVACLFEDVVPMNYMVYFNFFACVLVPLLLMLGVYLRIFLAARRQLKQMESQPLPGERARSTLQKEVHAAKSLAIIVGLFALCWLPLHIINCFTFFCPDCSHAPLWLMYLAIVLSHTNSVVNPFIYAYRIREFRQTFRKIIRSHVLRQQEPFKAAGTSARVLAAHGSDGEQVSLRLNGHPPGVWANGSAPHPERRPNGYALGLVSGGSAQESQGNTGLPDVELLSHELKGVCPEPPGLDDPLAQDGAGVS

One may read the Ki as the dissociation constant of the complex between target and ligand, obtained from inhibition or displacement. Consider `Nc1cc(C(=O)N2CCSC2)cc2nc(-c3nccs3)nn12` [Example 289, (5-Amino-2-thiazol-2-yl-[1,2,4]triazolo[1,5-a]pyridin-7-yl)-thiazolidin-3-yl-methanone], for which, in assay [1], the Ki turned out to be 55.3 nM and the “selectivity (A1/A2a)” value is 42.0. In assay [2], this compound had a Ki of 2320 nM.

For the compound `C=CCN(CC=C)C(=O)c1cc(N)n2nc(-c3nccs3)nc2c1` [Example 290, 5-Amino-2-thiazol-2-yl-[1,2,4]triazolo[1,5-a]pyridine-7-carboxylic acid diallylamide], in assay [1], the Ki was 57.6 nM and the “selectivity (A1/A2a)” value was 22.2. Moreover, affinity in assay [2] was put at a Ki of 1280 nM.

On to `CCCCN(CC)C(=O)c1cc(N)n2nc(-c3nccs3)nc2c1` [Example 291, 5-Amino-2-thiazol-2-yl-[1,2,4]triazolo[1,5-a]pyridine-7-carboxylic acid butyl-ethyl-amide], for which the figures for the Ki in assay [1] and in assay [2] were 89.5 nM and 1540 nM, respectively. Moreover, in assay [1], the “selectivity (A1/A2a)” value is reported as 17.2.

For the compound `CCCCCN(C)C(=O)c1cc(N)n2nc(-c3nccs3)nc2c1` [Example 292, 5-Amino-2-thiazol-2-yl-[1,2,4]triazolo[1,5-a]pyridine-7-carboxylic acid methyl-pentyl-amide], in assay [1], the Ki turned out to be 108 nM and the “selectivity (A1/A2a)” value is on record as 13.9. In assay [2], this compound gave a Ki of 1510 nM.

Take `CN(C)C(=O)c1cc(N)n2nc(-c3ccc(Br)o3)nc2c1` [Example 293, 5-Amino-2-(5-bromo-furan-2-yl)-[1,2,4]triazolo[1,5-a]pyridine-7-carboxylic acid dimethylamide]: the Ki in assay [1] was 24.1 nM; in assay [2] it was 528 nM. For the same compound, in assay [1], the “selectivity (A1/A2a)” value is on record as 21.9.

Take `Nc1cc(C(=O)N2CC=CCC2)cc2nc(-c3ccc(Br)o3)nn12` [Example 294, [5-Amino-2-(5-bromo-furan-2-yl)-[1,2,4]triazolo[1,5-a]pyridin-7-yl]-(3,6-dihydro-2H-pyridin-1-yl)-methanone]: in assay [1], the Ki was determined as 4.1 nM and the “selectivity (A1/A2a)” value was 35.0. The compound further registered a Ki in assay [2] of 143 nM.

As for `Nc1cc(C(=O)N2CCCCCC2)cc2nc(-c3ccc(Br)o3)nn12` [Example 296], in assay [1], the Ki came to 1.7 nM and the “selectivity (A1/A2a)” value is 31.0. In assay [2], this compound showed a Ki of 52.7 nM.

On to `CCCN(CC1CC1)C(=O)c1cc(N)n2nc(-c3ccc(Br)o3)nc2c1` [Example 298, 5-Amino-2-(5-bromo-furan-2-yl)-[1,2,4]triazolo[1,5-a]pyridine-7-carboxylic acid cyclopropylmethyl-propyl-amide], for which, in assay [1], the Ki is 2.2 nM and the “selectivity (A1/A2a)” value is 42.7. The affinity in assay [2], expressed as Ki, was 94 nM.

In the case of `CCN1CCN(C(=O)c2cc(N)n3nc(-c4ccc(Br)o4)nc3c2)CC1` [Example 299, [5-Amino-2-(5-bromo-furan-2-yl)-[1,2,4]triazolo[1,5-a]pyridin-7-yl]-(4-ethyl-piperazin-1-yl)-methanone], in assay [1], the Ki worked out at 123 nM and the “selectivity (A1/A2a)” value is given as 13.0. The compound also yielded a Ki in assay [2] of 1600 nM.

Regarding `NC(=O)C1CCN(C(=O)c2cc(N)n3nc(-c4ccc(Br)o4)nc3c2)CC1` [Example 300, 1-[5-Amino-2-(5-bromo-furan-2-yl)-[1,2,4]triazolo[1,5-a]pyridine-7-carbonyl]-piperidine-4-carboxylic acid amide], in assay [1], the Ki is 74.7 nM and the “selectivity (A1/A2a)” value is recorded as 5.2. Also, in assay [2], the affinity corresponds to a Ki of 385 nM.

As for `CC1CCC(C)N1C(=O)c1cc(N)n2nc(-c3nccs3)nc2c1` (stereo not drawn) [Example 301], in assay [1], the Ki came to 62.1 nM and the “selectivity (A1/A2a)” value is reported as 30.5. For the same compound, in assay [2], the Ki came out at 1900 nM.

Consider `CC1C=CC(C)N1C(=O)c1cc(N)n2nc(-c3nccs3)nc2c1` (stereo not drawn) [Example 302], for which the Ki in assay [1] was 104 nM; in assay [2] it was 2020 nM. Further, the “selectivity (A1/A2a)” value in assay [1] was 19.4.

On to `CC1CCCC(C)N1C(=O)c1cc(N)n2nc(-c3ccc(Br)o3)nc2c1` (stereo not drawn) [Example 303, [5-Amino-2-(5-bromo-furan-2-yl)-[1,2,4]triazolo[1,5-a]pyridin-7-yl]-(2,6-dimethyl-piperidin-1-yl)-methanone], for which, in assay [1], the Ki is 149 nM and the “selectivity (A1/A2a)” value is 8.7. Further, the Ki in assay [2] turned out to be 1300 nM.

Turning to `CC1CN(C(=O)c2cc(N)n3nc(-c4ccc(Br)o4)nc3c2)CC(C)O1` (stereo not drawn) [Example 304, [5-Amino-2-(5-bromo-furan-2-yl)-[1,2,4]triazolo[1,5-a]pyridin-7-yl]-(2,6-dimethyl-morpholin-4-yl)-methanone], in assay [1], the Ki is 9.3 nM and the “selectivity (A1/A2a)” value was 41.0. In assay [2], this compound showed a Ki of 382 nM.

With `COCCN(CCOC)C(=O)c1cc(N)n2nc(-c3ccc(Br)o3)nc2c1` [Example 305, 5-Amino-2-(5-bromo-furan-2-yl)-[1,2,4]triazolo[1,5-a]pyridine-7-carboxylic acid bis-(2-methoxy-ethyl)-amide], in assay [1], the Ki was 5.2 nM and the “selectivity (A1/A2a)” value is on record as 26.8. In addition, the Ki in assay [2] came to 139 nM.

On to `CCN(Cc1ccccc1)C(=O)c1cc(N)n2nc(-c3ccc(Br)o3)nc2c1` [Example 307, 5-Amino-2-(5-bromo-furan-2-yl)-[1,2,4]triazolo[1,5-a]pyridine-7-carboxylic acid benzyl-ethyl-amide], for which, in assay [1], the Ki came out at 1.7 nM and the “selectivity (A1/A2a)” value was 12.5. Besides, the Ki in assay [2] was 21.2 nM.

Turning to `CN(CCc1ccccn1)C(=O)c1cc(N)n2nc(-c3ccc(Br)o3)nc2c1` [Example 308, 5-Amino-2-(5-bromo-furan-2-yl)-[1,2,4]triazolo[1,5-a]pyridine-7-carboxylic acid methyl-(2-pyridin-2-yl-ethyl)-amide], in assay [1], the Ki was 9.8 nM and the “selectivity (A1/A2a)” value is 47.2. In assay [2], the inhibition constant Ki turned out to be 463 nM.

For the compound `CCN(CC)CCN(CC)C(=O)c1cc(N)n2nc(-c3ccc(Br)o3)nc2c1` [Example 309, 5-Amino-2-(5-bromo-furan-2-yl)-[1,2,4]triazolo[1,5-a]pyridine-7-carboxylic acid (2-diethylamino-ethyl)-ethyl-amide], in assay [1], the Ki is 49.5 nM and the “selectivity (A1/A2a)” value is reported as 9.9. The affinity in assay [2] corresponds to a Ki of 488 nM.

With `Nc1cc(C(=O)N2CCN(Cc3ccccc3)CC2)cc2nc(-c3ccc(Br)o3)nn12` [Example 310, [5-Amino-2-(5-bromo-furan-2-yl)-[1,2,4]triazolo[1,5-a]pyridin-7-yl]-(4-benzyl-piperazin-1-yl)-methanone], the Ki in assay [1] was determined as 148 nM; in assay [2] it was 314 nM. In assay [1], the “selectivity (A1/A2a)” value is recorded as 2.1.

`Nc1cc(C(=O)N(CC(F)(F)F)CC(F)(F)F)cc2nc(-c3ccc(Br)o3)nn12` [Example 311, 5-Amino-2-(5-bromo-furan-2-yl)-[1,2,4]triazolo[1,5-a]pyridine-7-carboxylic acid bis-(2,2,2-trifluoro-ethyl)-amide]: in assay [1], the Ki is 25.8 nM and the “selectivity (A1/A2a)” value was 22.3. The same compound came in with a Ki in assay [2] of 577 nM.

On to `Nc1cc(C(=O)N2CC=C(c3ccccc3)CC2)cc2nc(-c3ccc(Br)o3)nn12` [Example 312, [5-Amino-2-(5-bromo-furan-2-yl)-[1,2,4]triazolo[1,5-a]pyridin-7-yl]-(4-phenyl-3,6-dihydro-2H-pyridin-1-yl)-methanone], for which the Ki in assay [1] came out at 21.8 nM; in assay [2] it was 227 nM. Further, the “selectivity (A1/A2a)” value in assay [1] is 10.4.

Regarding `Nc1cc(C(=O)N(Cc2ccccc2)Cc2ccccc2)cc2nc(-c3ccc(Br)o3)nn12` [Example 313, 5-Amino-2-(5-bromo-furan-2-yl)-[1,2,4]triazolo[1,5-a]pyridine-7-carboxylic acid dibenzylamide], in assay [1], the Ki was 1.2 nM and the “selectivity (A1/A2a)” value is 14.8. This compound also yielded an inhibition constant (Ki) in assay [2] of 17.8 nM.

As for `CCN(Cc1ccncc1)C(=O)c1cc(N)n2nc(-c3ccc(Br)o3)nc2c1` [Example 314, 5-Amino-2-(5-bromo-furan-2-yl)-[1,2,4]triazolo[1,5-a]pyridine-7-carboxylic acid ethyl-pyridin-4-ylmethyl-amide], the results for the Ki in assay [1] and in assay [2] were 1.2 nM and 59.1 nM, respectively. Also, the “selectivity (A1/A2a)” value in assay [1] is 49.3.

`Nc1cc(C(=O)N2CC=CCC2)cc2nc(-c3nccs3)nn12` [Example 315, (5-Amino-2-thiazol-2-yl-[1,2,4]triazolo[1,5-a]pyridin-7-yl)-(3,6-dihydro-2H-pyridin-1-yl)-methanone]: in assay [1], the inhibition constant (Ki) turned out to be 97.5 nM and the “selectivity (A1/A2a)” value is reported as 20.4. The compound further registered a Ki in assay [2] of 1990 nM.

Consider `CC1CCCN(C(=O)c2cc(N)n3nc(-c4nccs4)nc3c2)C1` (stereo not drawn) [Example 316, (5-Amino-2-thiazol-2-yl-[1,2,4]triazolo[1,5-a]pyridin-7-yl)-(3,methyl-piperidin-1-yl)-methanone], for which, in assay [1], the Ki was 72.3 nM and the “selectivity (A1/A2a)” value was 30.3. In assay [2], this compound registered a Ki of 2190 nM.

On to `Nc1cc(C(=O)N2CCCCCC2)cc2nc(-c3nccs3)nn12` [Example 317, (5-Amino-2-thiazol-2-yl-[1,2,4]triazolo[1,5-a]pyridin-7-yl)-azepan-1-yl-methanone], for which, in assay [1], the Ki amounted to 34.5 nM and the “selectivity (A1/A2a)” value is listed as 33.6. Besides, in assay [2], affinity was put at a Ki of 1160 nM.

For the compound `CCCN(CC1CC1)C(=O)c1cc(N)n2nc(-c3nccs3)nc2c1` [Example 319, 5-Amino-2-thiazol-2-yl-[1,2,4]triazolo[1,5-a]pyridine-7-carboxylic acid cyclopropylmethyl-propyl-amide], in assay [1], the Ki stood at 87 nM and the “selectivity (A1/A2a)” value is on record as 14.3. The Ki in assay [2] was found to be 1240 nM.
